Entries after “also recorded” stand apart in the source; their conditions may differ.

Consider 3 compounds from US20080306166A1, “Compositions and Methods For Treatment of Disorders of Protein Aggregation” (priority 2004, published 2008).

The test system of one data set is Aβ oligomers. To be noted: added pre-cond, positive control, previously shown; cited from earlier work.
Data set [1] deals with TgCRND8 mice. The data set is described as follows: Cerebral amyloid plaque burden (anti-Aβ immunostaining, image analysis). It counts as in vivo, mouse. The procedure:
(§1) Mice. […] This initial dosage was chosen based upon the dosage of myo-cyclohexanehexyl (6-18 grams/day/adult or 86-257 mg/Kg/day) that is typically administered to human patients for various psychiatric disorders. […] A cohort of animals (n=10 mice per treatment arm) entered the study at five months of age, and outcomes were then analyzed after one month of treatment. The body weight, coat characteristics and in cage behaviour were monitored. Mannitol was used as a negative control for potential alterations in caloric intake. All experiments were performed according to the Canadian Council on Animal Care guidelines. Behavioural tests: Morris Water Maze testing was performed as previously described. After non-spatial pre-training, mice underwent place discrimination training for 5 days with 4-trials per day, followed by a cued visible platform to rule out general motivational, learning deficits and motor problems, and a probe trial to evaluate memory. […] Open field test for motor activity was preformed as described previously. Duration of walking, pausing and grooming were analyzed as indices of spontaneous locomotor activity. Sensorimotor function was examined with an Economex™ accelerating rotarod (Columbus Instruments, Columbus, Ohio), as described elsewhere. The rod was set to accelerate at a rate of 0.2 r.p.m./s, from an initial, constant speed of 5 r.p.m. Latency to fall was recorded in four daily trials, conducted at 30 min intervals. All mice were trained for seven days before testing. The test day performance score for each animal was obtained by summing its latency to fall over the four trials. Cerebral amyloid burden. Brains were removed and one hemisphere was fixed in 4% paraformaldehyde and embedded in paraffin wax in the mid sagittal plane. To generate sets of systematic uniform random sections, 5 μm serial sections were collected across the entire hemisphere. Sets of sections at 50 μm intervals were used for analyses (10-14 sections/set). Plaques were identified after antigen retrieval with formic acid, and incubation with primary anti-AD antibody (Dako M-0872), followed by secondary antibody (Dako StreptABCcomplex/horseradish kit). End products were visualized with DAB and were counter-stained with luxol fast blue. Amyloid plaque burden was assessed with Leco IA-3001 image analysis software interfaced with Leica microscope and Hitachi KP-M1U CCD video camera. Openlab imaging software (Improvision, Lexington, Mass.) was then used to convert micrographs to binary images for plaque number and plaque area determinations. Vascular amyloid burden was defined as amyloid originating from or surrounding blood vessels and was analysed similarly. Plasma and Cerebral Aβ Content. Hemi-brain samples were homogenized in a buffered sucrose solution, followed by either 0.4% diethylamine/100 mM NaCl for soluble Aβ levels or cold formic acid for the isolation of total Aβ. After neutralization, the samples were diluted and analyzed for Aβ40 and Aβ42 using commercially available kits (BIOSOURCE International). Each hemisphere was analyzed intriplicate and the mean values ±SEM reported. Western blot analyses were performed on all fractions using urea gels for Aβ species analyses. Aβ was detected using 6E10 (BIOSOURCE International) and Enhanced Chemiluminenscence (Amersham). Gliosis Quantitation. Five randomly selected, evenly spaced, sagittal sections were collected from paraformaldehyde-fixed and frozen hemispheres of treated and control mice. Sections were immunolabelled for astrocytes with anti-rat GFAP IgG2a, (Dako; diluted 1:50) and for microglia with anti-rat CD68 IgG2b (Dako; 1:50).

In a further data set the target is T1, Aβ42 (Homo sapiens, UniProt P05067).
T1 construct: analyzed for Aβ40 and Aβ42 using commercially available kits; from tissue; host or cells: TgCRND8 transgenic mice: hemi-brain (A3) and plasma (A5)
The data set is described as follows: Plasma Aβ42 levels. To be noted: TgCRND8 mice, 28 days of therapy at five months of age. It counts as in vivo, mouse. The procedure:
Mice. […] This initial dosage was chosen based upon the dosage of myo-cyclohexanehexyl (6-18 grams/day/adult or 86-257 mg/Kg/day) that is typically administered to human patients for various psychiatric disorders. […] A cohort of animals (n=10 mice per treatment arm) entered the study at five months of age, and outcomes were then analyzed after one month of treatment. The body weight, coat characteristics and in cage behaviour were monitored. Mannitol was used as a negative control for potential alterations in caloric intake. All experiments were performed according to the Canadian Council on Animal Care guidelines. Behavioural tests: Morris Water Maze testing was performed as previously described. […] Duration of walking, pausing and grooming were analyzed as indices of spontaneous locomotor activity. […] Latency to fall was recorded in four daily trials, conducted at 30 min intervals. […] Amyloid plaque burden was assessed with Leco IA-3001 image analysis software interfaced with Leica microscope and Hitachi KP-M1U CCD video camera. […] Vascular amyloid burden was defined as amyloid originating from or surrounding blood vessels and was analysed similarly. […] After neutralization, the samples were diluted and analyzed for Aβ40 and Aβ42 using commercially available kits (BIOSOURCE International). Each hemisphere was analyzed intriplicate and the mean values ±SEM reported. […] Gliosis Quantitation. […]

Data set [2] concerns TgCRND8 mice. Nature of the data set: Morris Water Maze spatial reference memory test in TgCRND8 mice. It counts as in vivo, mouse. To be noted: six month old TgCRND8 mice, 28 days treatment from 5 months. The procedure:
as §1, with “Sections were immunolabelled for astrocytes with anti-rat GFAP IgG2a, (Dako; diluted 1:50) and for microglia with anti-rat CD68 IgG2b (Dako; 1:50).” left out

A short description of data set [3]: Pilot in vivo studies with myo-cyclohexanehexyl. To be noted: data not shown. The source says: The TgCRND8 mice and non-transgenic littermates were assigned to sex- and age-matched cohorts that were then used to test the effectiveness of the cyclohexanehexyl stereoisomers as a therapeutic (with treatment delayed until five months of age and continued for one month until six months of age). […] The endpoints were cognitive function, brain Aβ levels, and neuropathology. […] Over the course of these experiments, observers were unaware of genotype or treatment group.

For data set [4] the following is noted: 6-18 grams/day/adult or 86-257 mg/Kg/day; cited from earlier work.
The target in a further data set is T2, Aβ (Homo sapiens, UniProt P05067).
T2 construct: Inositol stereoisomers stabilize an oligomeric aggregate of Alzheimer amyloid beta peptide
To be noted: cited from earlier work.

[5] abbreviates: TgCRND8 mice, oral, 28 days from 5 months of age, 6 months of age, listed as Epi-cyclohexanehexol.

T2 sequence (P05067 672-713 limits assumed): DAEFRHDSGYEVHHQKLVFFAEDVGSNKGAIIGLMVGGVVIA
T1 sequence (P05067 672-713): as the sequence (P05067 672-713 limits assumed) above

On to `Oc1cccc(Nc2ccc(Nc3cccc(O)c3)nn2)c1` [RS0406], for which the “production of Aβ oligomers” value with Aβ oligomers is reported as “reduces the production of oligomers”.
For the compound `OC1C(O)C(O)C(O)C(O)C1O` (stereo not drawn) [epi-cyclohexanehexyl, 1,2,3,4,5/6-(epi-) cyclohexanehexyl, reference compound], in the data set on TgCRND8 mice [1] (TgCRND8 mice with pre-existing disease, 28 days), the “impact on brain Aβ40 or Aβ42 levels, percent area of the brain covered with plaques, or plaque number” value is given as “no significant impact”. Also, in the data set with TgCRND8 mice [1] (setting [5]), the “Mean Plaque Size” value was determined as 346 ± 6 μm^2, the “Total Plaque Area” value is 459706 ± 49966 μm^2 and the “Total Plaque Count” value amounted to 1342 ± 114. On Aβ42, the “Plasma Aβ42 levels” value turned out to be 1079 ± 79 pg/mL. Also, in the data set on TgCRND8 mice [2], the “spatial learning performance compared to non-Tg littermates” value is given as “significantly poorer than the performance of their non-Tg littermates; also recorded: remained impaired with respect to non-Tg littermates” and the “spatial learning performance compared to untreated TgCRND8 littermates” value was “not significantly different from that of untreated TgCRND8 littermates”.
On to `O[C@H]1[C@H](O)[C@@H](O)[C@H](O)[C@@H](O)[C@H]1O` [myo-cyclohexanehexyl, 1,2,3,5/4,6-(myo-) cyclohexanehexyl], for which the “benefit in pilot in vivo studies” value in data set [3] is recorded as “no significant benefit”. The “toxicity in humans or animals” value in data set [4] is “no toxicity”. Further, at Aβ, the “effectiveness in prior in vitro studies” value is on record as “only weakly effective”.
